This is an account of results in ChEMBL document CHEMBL1201862, “PubChem BioAssay data set” (2004).

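All cell lines were grown in 96-well plates and treated with compound for 48 hours. Here, GI50 denotes the concentration required for 50% inhibition of growth.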 Calls of active or inactive are those of the source. No stated cut-off is given here; in the data, active = GI50 up to about 1.1 µM and inactive = higher.

Test in all cases: growth of human tumour cells (NCI), 48 h
Assay [1] has as its system CAKI-1.
Assay [2] concerns SW-620.
Assay [3] relates to SF-268.
In assay [4] the test system is TK-10.
Assay [5] has as its system Malme-3M.
Assay [6] relates to OVCAR-4.
For assay [7], the system named is COLO 205.
Assay [8] concerns UACC-62.
The test system of assay [9] is SN12C.
The subject of assay [10] is M14.
Assay [11] relates to SK-MEL-5.
Assay [12] concerns SK-OV-3.
Assay [13] concerns OVCAR-5.
Assay [14] has as its system SK-MEL-2.

As for `CN1C(=O)C(Cl)(C(Cl)(Cl)S(=O)(=O)O)C(=O)c2ccccc21.c1ccncc1` (stereo not given), the GI50 is > 100 µM (inactive) in assay [1]; > 100 µM (inactive) in assay [2]; > 100 µM (inactive) in [3]; > 100 µM (inactive) in [4]; 33.2 µM (inactive) in [5]; > 100 µM (inactive) in [6]. In addition, the GI50 in [7], in [8], in assay [9], in assay [10], in assay [11] and in [12] was > 100 µM (inactive) each time.
`c1ccc(-c2nnc3nn4c(-c5ccccc5)cnnc4c3c2-c2ccccc2)cc1`: the GI50 in [1] is 23.7 µM (inactive); in assay [2] it was > 100 µM (inactive); in assay [13], > 100 µM (inactive); in assay [4], 19.2 µM (inactive); in assay [5], 42.5 µM (inactive); in assay [6], 12.9 µM (inactive). Further, the GI50 in [14] is > 100 µM (inactive); in [8] it was 32.1 µM (inactive); in [9] it was > 100 µM (inactive); in assay [10], > 100 µM (inactive); in assay [11] it was 67.1 µM (inactive).
Regarding `C[C@H](OCc1ccccc1)C(=O)N1CCS(=O)(=O)N2CCC[C@H]2C1=O`, the GI50 in assay [1], in assay [2], in [13], in assay [3], in assay [4] and in assay [5] was > 100 µM (inactive) each time. In addition, the GI50 in [6], in assay [7], in [8], in assay [9], in assay [10] and in assay [11] was > 100 µM (inactive) in each case. Moreover, the GI50 in assay [12] was > 100 µM (inactive).
Consider `O=c1cc(-c2ccccc2)oc2cc(O)cc(O)c12` [CHRYSIN], for which the GI50 was 18.6 µM (inactive) in assay [13]; 23.1 µM (inactive) in [3]; 34.5 µM (inactive) in [4]; 24.3 µM (inactive) in assay [5]; 29.8 µM (inactive) in assay [6]; 18.5 µM (inactive) in assay [7]. The GI50 in [14] is 17.9 µM (inactive); in [8], 21.5 µM (inactive); in assay [9] it was 17.9 µM (inactive); in assay [10] it was 33 µM (inactive); in assay [11], 10.1 µM (inactive); in assay [12], 27.9 µM (inactive).
With `COc1ccc(-c2cc(=O)c3c(O)cc(O)cc3o2)c(OC)c1OC`, the GI50 in [1] is 60.8 µM (inactive); in [2] it was 71.1 µM (inactive); in [13], 92.3 µM (inactive); in assay [3], 85.3 µM (inactive); in [4] it was > 100 µM (inactive); in [5], > 100 µM (inactive). In addition, the GI50 in [6] is 62.8 µM (inactive); in [7], 57.7 µM (inactive); in assay [14], > 100 µM (inactive); in [8], 97.1 µM (inactive); in [9], > 100 µM (inactive); in assay [10] it was > 100 µM (inactive). Moreover, the GI50 in assay [12] was > 100 µM (inactive).
Consider `CCN1CCC(O)(c2ccc(Cl)cc2)C(C(=O)c2ccc(Cl)cc2)C1` (stereo not given), for which the GI50 is 70.3 µM (inactive) in [2]; > 100 µM (inactive) in assay [13]; > 100 µM (inactive) in assay [3]; > 100 µM (inactive) in [4]; > 100 µM (inactive) in assay [6]; > 100 µM (inactive) in assay [7]. Also, the GI50 in [14], in assay [8], in [9], in assay [10], in [11] and in [12] was > 100 µM (inactive) each time.
For the compound `CCCc1nn(C)c(CCC(=O)N(Cc2ccccc2)Cc2ccccc2)c1CC`, the GI50 in [2], in assay [13], in assay [3], in assay [4], in assay [5] and in assay [6] was > 100 µM (inactive) each time. The GI50 in [7], in assay [14], in assay [8], in assay [9], in [10] and in assay [11] was > 100 µM (inactive) throughout. Moreover, in assay [12], the GI50 was > 100 µM (inactive).
As for `O=[N+]([O-])/C=C/c1ccc(Cl)cc1Cl`, the GI50 in assay [1] is 16.3 µM (inactive); in assay [2], 12.1 µM (inactive); in [13], 17.8 µM (inactive); in assay [3], 21.3 µM (inactive); in [4], > 10 µM (inactive); in assay [5], 17.8 µM (inactive). Also, the GI50 in assay [6] is 19.8 µM (inactive); in assay [7], 21.2 µM (inactive); in assay [14] it was 20.3 µM (inactive); in [8], 15.7 µM (inactive); in assay [10] it was 11.7 µM (inactive); in assay [11], 15.6 µM (inactive).
Regarding `COC[C@@H](/N=C/N1CCc2cc(OC)c(OC)cc2C1)C(C)(C)C`, the GI50 in assay [1], in assay [2], in assay [3], in [4], in [5] and in assay [6] was > 100 µM (inactive) throughout. The GI50 in [7], in [8], in [9], in assay [10], in [11] and in assay [12] was > 100 µM (inactive) throughout.
As to `COc1ccc2nc3ccccc3c(NCCN(CCCl)CCCl)c2c1`, the GI50 is 0.251 µM (active) in [1]; 0.238 µM (active) in assay [2]; 0.643 µM (active) in assay [13]; 0.783 µM (active) in assay [3]; 1.76 µM (inactive) in assay [4]; 1.51 µM (inactive) in assay [5]. Besides, the GI50 in assay [6] is 1.08 µM (active); in [14] it was 1.81 µM (inactive); in assay [8], 1 µM (active); in assay [9] it was 0.658 µM (active); in assay [10] it was 1.03 µM (active); in assay [12] it was 1.48 µM (inactive).
`Cc1ccccc1C(C#N)/C(=N/NC(=O)C(=O)NN)C(=O)Nc1cccc(C(F)(F)F)c1` (stereo not given): the GI50 in assay [1], in assay [2], in assay [13], in assay [3], in assay [4] and in assay [5] was > 100 µM (inactive) each time. For the same compound, the GI50 in assay [6], in assay [7], in assay [14], in assay [8], in assay [9] and in assay [10] was > 100 µM (inactive) throughout. In addition, the GI50 in [11] is > 100 µM (inactive).
